Tests used:
[1] = system: 2F2B cells; test: Fluorescent micrographs of cells treated with DOX nanoparticles vs free DOX; format: cell-based; conditions: 30 min treatment, DOX fluorescence
Experimental: FIG. 4A depicts fluorescent micrographs showing 2F2B cells treated for 30 min with αvβ3-targeted perfluorocarbon nanoparticles incorporating DOX (Left) vs. equimolar exposure of free DOX (Middle).
Not only was significant amount delivered to the nucleus (white arrow), the cytoplasmic content of DOX remained high (yellow arrow), providing a continuous source of DOX for nuclear translocation. […] The data also confirm that DOX fluorescence, which was used to obtain these images, will provide sufficient contrast for imaging DOX's intracellular trafficking to the nuclei.

[2] = system: HT1080 tumors; conditions: I.V., 0.3-0.4 g/Kg (~10x the nanoparticle dosage)
Experimental: For determining pHe changes in vivo post bolus particle Intravenous injection, HT1080 tumors were grown subcutaneously in dorsal flanks of athymic nude mice, in dorsal bilateral flanks. Tumors generally grew in one flank. When the tumors growth reached approximately 50 mm^3 or greater, the extracellular pH was measured using an external pH electrode. […] Treatments were discontinued for at least 5 days before performing the in vivo pH measurements. […] The pH was measured using an extracellular pH electrode implanted into the tumor following a 15 min equilibration period after electrode entry. The pH electrode was calibrated within the week. About 1 mg of each size of particles (20 nm, 100 nm, 300 nm) in a 100 μL solution of PBS, CaCl2, MgCl2 and 2% bovine serum albumin was injected intravenously in individual mice. […] Tumor sizes at time of injection for this experiment were 12 mm×9 mm (20 nm particles), 13.7 mm×12.5 mm (100 nm), 13.5 mm×15.5 mm (300 nm), 12.5×16.5 mm (0.84% bicarbonate), 12.5×16.5 mm (7.5% bicarbonate), and 12.5×16.5 mm (vector). In general, the pH was then followed each minute for a minimum of 1 hour, or up to 3 hours if any changes were seen. […] Bleeding, if any, was also noted.

Structure (SMILES)	cytoplasmic content of DOX [1]	tumor pH change [2]
COc1cccc2c1C(=O)c1c(O)c3c(c(O)c1C2=O)C[C@@](O)(C(=O)CO)C[C@@H]3O[C@H]1C[C@H](N)[C@H](O)[C@H](C)O1 [free DOX, Doxorubicin]	depleted rapidly	
O=C([O-])O.[Na+] [sodium bicarbonate]		did not induce a measurable pH change

Reference: patent US10639327B1, “Nano-calcium carbonate” (Washington University in St. Louis, priority 2015, dated 2020)
